Test results reported in patent US11591323B2, “Muscarinic agonists as non-steroidal and non-opioid analgesics and methods of use thereof” (Barry University, priority 2019, dated 2023).
Where “and” joins values, the source holds several entries; their conditions need not be identical. Identical values can stand only once. Like-named read-outs stand apart in the source and are kept apart here.

What was measured:
Set-up in all cases: host or cells: CHO cells, stably transfected
M1 muscarinic receptor = biological target: T1, M1 muscarinic receptor (Homo sapiens, UniProt P11229); experiment: accumulation of inositol phosphates IPX, M1 CHO cells (M1Gq); format: cell-based
T1 sequence (P11229 1-460): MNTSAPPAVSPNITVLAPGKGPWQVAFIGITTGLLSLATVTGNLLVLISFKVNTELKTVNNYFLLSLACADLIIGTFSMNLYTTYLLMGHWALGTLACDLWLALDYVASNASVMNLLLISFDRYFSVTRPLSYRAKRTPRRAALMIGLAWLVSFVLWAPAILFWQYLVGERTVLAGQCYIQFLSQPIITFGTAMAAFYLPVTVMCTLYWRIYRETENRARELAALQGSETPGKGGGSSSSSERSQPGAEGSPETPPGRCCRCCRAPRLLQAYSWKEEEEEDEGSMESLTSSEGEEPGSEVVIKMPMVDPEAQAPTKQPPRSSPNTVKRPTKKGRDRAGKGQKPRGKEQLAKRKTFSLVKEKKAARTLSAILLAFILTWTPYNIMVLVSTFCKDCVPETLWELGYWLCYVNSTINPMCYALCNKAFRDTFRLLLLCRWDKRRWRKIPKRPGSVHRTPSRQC

M5 muscarinic receptor = biological target: T2, M5 muscarinic receptor (Homo sapiens, UniProt P08912); experiment: accumulation of IPX, M5 CHO cells (M5Gq); format: cell-based; conditions: for EC50: read-out: pEC50 (converted)
T2 sequence (P08912 1-532): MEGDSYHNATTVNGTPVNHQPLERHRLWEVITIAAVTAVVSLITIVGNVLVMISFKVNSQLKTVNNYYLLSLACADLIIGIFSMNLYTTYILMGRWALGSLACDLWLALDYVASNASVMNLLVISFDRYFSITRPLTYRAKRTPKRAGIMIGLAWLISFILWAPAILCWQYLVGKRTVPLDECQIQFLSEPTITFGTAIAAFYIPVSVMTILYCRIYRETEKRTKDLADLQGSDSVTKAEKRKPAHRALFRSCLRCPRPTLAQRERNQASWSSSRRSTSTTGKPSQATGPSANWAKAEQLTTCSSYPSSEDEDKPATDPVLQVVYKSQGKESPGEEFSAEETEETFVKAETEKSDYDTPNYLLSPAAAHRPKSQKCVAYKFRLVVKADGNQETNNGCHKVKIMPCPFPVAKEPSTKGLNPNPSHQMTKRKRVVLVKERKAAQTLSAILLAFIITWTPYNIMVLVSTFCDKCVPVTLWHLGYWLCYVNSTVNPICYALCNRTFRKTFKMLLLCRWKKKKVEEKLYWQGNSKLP

M2 muscarinic receptor = biological target: T3, M2 muscarinic receptor (Homo sapiens, UniProt P08172); experiment: inhibition of forskolin-stimulated cAMP, M2 CHO cells (M2Gi); format: cell-based
T3 sequence (P08172 1-466): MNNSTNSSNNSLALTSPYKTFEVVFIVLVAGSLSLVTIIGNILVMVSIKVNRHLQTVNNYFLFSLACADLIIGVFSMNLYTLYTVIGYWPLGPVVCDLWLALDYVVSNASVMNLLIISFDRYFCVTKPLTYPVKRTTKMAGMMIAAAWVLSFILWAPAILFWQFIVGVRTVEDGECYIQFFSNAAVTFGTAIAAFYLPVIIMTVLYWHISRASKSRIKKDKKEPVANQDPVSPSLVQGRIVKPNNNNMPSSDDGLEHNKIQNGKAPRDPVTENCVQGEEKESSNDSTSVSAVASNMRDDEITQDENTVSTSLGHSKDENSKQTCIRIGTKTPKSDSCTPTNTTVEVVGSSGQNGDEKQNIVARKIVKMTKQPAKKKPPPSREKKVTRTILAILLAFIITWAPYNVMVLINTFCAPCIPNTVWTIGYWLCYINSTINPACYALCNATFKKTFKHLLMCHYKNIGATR

M3 muscarinic receptor = M3 muscarinic receptor (Homo sapiens, UniProt P20309); experiment: [3H]NMS competition binding, M3 CHO membranes; conditions: competition with 1 nM [3H]NMS; read-out: Inhibition constants (Ki) as negative logarithms, M3 (converted)
M4 muscarinic receptor [1] = biological target: T4, M4 muscarinic receptor (Homo sapiens, UniProt P08173); experiment: [3H]NMS competition binding, M4 CHO membranes; conditions: competition with 1 nM [3H]NMS; read-out: Inhibition constants (Ki) as negative logarithms, M4 (converted)
T4 sequence (P08173 1-479): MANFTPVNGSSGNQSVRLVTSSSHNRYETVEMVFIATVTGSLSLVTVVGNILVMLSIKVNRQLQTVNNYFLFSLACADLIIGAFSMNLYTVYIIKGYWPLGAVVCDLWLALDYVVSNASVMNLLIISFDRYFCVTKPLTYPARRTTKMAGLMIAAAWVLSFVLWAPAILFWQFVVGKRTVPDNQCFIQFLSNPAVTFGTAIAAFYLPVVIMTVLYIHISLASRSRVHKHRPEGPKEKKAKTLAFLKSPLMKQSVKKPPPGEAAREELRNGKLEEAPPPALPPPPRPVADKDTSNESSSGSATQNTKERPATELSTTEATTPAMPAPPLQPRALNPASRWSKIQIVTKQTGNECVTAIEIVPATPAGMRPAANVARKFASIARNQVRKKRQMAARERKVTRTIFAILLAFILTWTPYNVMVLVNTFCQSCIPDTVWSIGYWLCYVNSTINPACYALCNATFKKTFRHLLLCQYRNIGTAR

M4 muscarinic receptor [2] = biological target: T4, M4 muscarinic receptor; experiment: inhibition of forskolin-stimulated cAMP, M4 CHO cells (M4Gi); format: cell-based; conditions: for Kd: read-out: pKA (converted); for EC50: read-out: pEC50 (converted)
[3] = M5 (↑IPX), preferential response, Table 7

Chain of M3 muscarinic receptor (P20309 whole entry): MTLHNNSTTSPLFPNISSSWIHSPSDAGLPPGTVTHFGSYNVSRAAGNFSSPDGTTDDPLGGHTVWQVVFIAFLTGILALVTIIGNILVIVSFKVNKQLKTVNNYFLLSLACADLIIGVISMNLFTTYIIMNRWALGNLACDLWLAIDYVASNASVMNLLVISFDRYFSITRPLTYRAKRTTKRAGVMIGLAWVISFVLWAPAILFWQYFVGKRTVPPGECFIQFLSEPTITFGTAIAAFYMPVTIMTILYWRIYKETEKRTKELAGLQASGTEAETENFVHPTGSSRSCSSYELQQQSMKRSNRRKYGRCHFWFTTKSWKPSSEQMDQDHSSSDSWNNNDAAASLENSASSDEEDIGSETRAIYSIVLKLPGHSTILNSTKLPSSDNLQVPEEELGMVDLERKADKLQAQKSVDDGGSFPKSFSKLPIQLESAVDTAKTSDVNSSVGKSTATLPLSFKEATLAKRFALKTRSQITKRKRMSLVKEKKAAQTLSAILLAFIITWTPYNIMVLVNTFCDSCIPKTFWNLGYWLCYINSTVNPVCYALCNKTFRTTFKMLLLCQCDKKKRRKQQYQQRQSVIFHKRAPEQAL

`C[N+]1(Cc2cccs2)CC=CCC1.[I-]` (stereo not drawn) [Compound 7A, 1-methyl-1-[(thiophen-2-yl)methyl]-1,2,3,6-tetrahydropyridin-1-ium iodide] was tested. Which “E′MAX” value (M1 muscarinic receptor; M1 (↑IPX), preferential response, Table 7) did it give?
The value was 4.6 ± 0.4 fold over basal.

And the τ (M1 muscarinic receptor; M1 (↑IPX), preferential response, Table 7, operational efficacy)?
The τ was 0.12 ± 0.01.

What about the Kd (M1 muscarinic receptor; M1 (↑IPX), preferential response, Table 7, operational model, read-out: pKA (converted)) of the same molecule?
The Kd was 3.16 µM.

What about the EC50 (M1 muscarinic receptor; M1 (↑IPX), preferential response, Table 7, read-out: pEC50 (converted)) of the same molecule?
Its EC50 is 2.63 µM.

What about the RAi (M1 muscarinic receptor; M1 (↑IPX), preferential response, relative to carbachol, Tables 2, 3, 7) of the same molecule?
The RAi was 0.0111 ± 0.0002.

And the “Δlog(τ/KA)” value (M1 muscarinic receptor; M1 (↑IPX), preferential response, to carbachol, Tables 2, 3, 7)?
Its value is 1.96 ± 0.16.

And the “E′MAX” value (M1 muscarinic receptor; M1Gq (↑IPX), Table 8)?
Its value is 4.6 ± 0.4 fold increase.

What about the pEC50 (M1 muscarinic receptor; M1Gq (↑IPX), Table 8) of the same molecule?
The pEC50 was 5.58 ± 0.03.

What about the pKA (M1 muscarinic receptor; M1Gq (↑IPX), Table 8) of the same molecule?
Its pKA is 5.5 ± 0.1.

And the τ (M1 muscarinic receptor; M1Gq (↑IPX), Table 8)?
The τ was 0.12 ± 0.01.

What about the RAi (M1 muscarinic receptor; M1Gq (↑IPX), Table 8, relative to carbachol) of the same molecule?
Its RAi is 0.012 ± 0.006.

And the “Δlog(τ/KA)” value (M1 muscarinic receptor; M1Gq (↑IPX), Table 8, to carbachol)?
The value was 1.93 ± 0.25.

And the “E′MAX” value (M5 muscarinic receptor; [3])?
Its value is 1.28 ± 0.05 fold over basal.

And the EC50 (M5 muscarinic receptor; [3])?
The EC50 was 7.94 µM.

And the RAi (M5 muscarinic receptor; M5 (↑IPX), preferential response, relative to carbachol, Tables 2, 3, 7)?
Its RAi is 0.0007 ± 0.0002 and 0.0007 ± 0.0001.

What about the “E′MAX” value (M5 muscarinic receptor; M5Gq (↑IPX), Table 8) of the same molecule?
Its value is 1.26 ± 0.05 fold over basal.

And the RAi (M5 muscarinic receptor; M5Gq (↑IPX), Table 8, relative to carbachol)?
Its RAi is 0.0006 ± 0.0002.

What about the EC50 (M5 muscarinic receptor; M5Gq (↑IPX), Table 8) of the same molecule?
Its EC50 is 7.94 µM.

And the Emax (M2 muscarinic receptor; CHO, M2 (↓cAMP), preferential response, Table 7, read-out: E′MAX)?
Its Emax is 53 ± 2%.

And the τ (M2 muscarinic receptor; M2 (↓cAMP), preferential response, Table 7, operational efficacy)?
Its τ is 1.51 ± 0.15.

And the Kd (M2 muscarinic receptor; M2 (↓cAMP), preferential response, Table 7, operational model, read-out: pKA (converted))?
The Kd was 1 µM.

And the EC50 (M2 muscarinic receptor; M2 (↓cAMP), preferential response, Table 7, read-out: pEC50 (converted))?
Its EC50 is 0.389 µM.

What about the “E′MAX” value (M2 muscarinic receptor; M2Gi (↓cAMP), Table 8) of the same molecule?
Its value is 53 ± 2 % inhibition.

What about the pEC50 (M2 muscarinic receptor; M2Gi (↓cAMP), Table 8) of the same molecule?
Its pEC50 is 6.41 ± 0.05.

And the pKA (M2 muscarinic receptor; M2Gi (↓cAMP), Table 8)?
Its pKA is 6.0 ± 0.1.

What about the τ (M2 muscarinic receptor; M2Gi (↓cAMP), Table 8) of the same molecule?
Its τ is 1.5 ± 0.2.

What about the RAi (M2 muscarinic receptor; M2Gi (↓cAMP), Table 8, relative to carbachol) of the same molecule?
The RAi was 0.140 ± 0.008.

And the “Δlog(τ/KA)” value (M2 muscarinic receptor; M2Gi (↓cAMP), Table 8, to carbachol)?
The value was 0.93 ± 0.09.

What about the Ki (M3 muscarinic receptor) of the same molecule?
The Ki was 7.94 µM.

And the Ki (M4 muscarinic receptor [1])?
The Ki was 7.94 µM.

What about the Emax (M4 muscarinic receptor [2]; CHO, M4 (↓cAMP), preferential response, Table 7, read-out: E′MAX) of the same molecule?
The Emax was 39 ± 2%.

And the τ (M4 muscarinic receptor [2]; M4 (↓cAMP), preferential response, Table 7, operational efficacy)?
Its τ is 0.78 ± 0.08.

And the Kd (M4 muscarinic receptor [2]; M4 (↓cAMP), preferential response, Table 7, operational model)?
Its Kd is 3.16 µM.

And the EC50 (M4 muscarinic receptor [2]; M4 (↓cAMP), preferential response, Table 7)?
Its EC50 is 1.78 µM.

What about the RAi (M4 muscarinic receptor [2]; M4 (↓cAMP), preferential response, relative to carbachol, Tables 2, 3, 7) of the same molecule?
The RAi was 0.0209 ± 0.0011.

And the “Δlog(τ/KA)” value (M4 muscarinic receptor [2]; M4 (↓cAMP), preferential response, to carbachol, Tables 2, 3, 7)?
The value was 1.58 ± 0.22.

And the “E′MAX” value (M4 muscarinic receptor [2]; M4Gi (↓cAMP), Table 8)?
The value was 39 ± 2 % inhibition.

And the τ (M4 muscarinic receptor [2]; M4Gi (↓cAMP), Table 8)?
Its τ is 0.78 ± 0.08.

And the RAi (M4 muscarinic receptor [2]; M4Gi (↓cAMP), Table 8, relative to carbachol)?
Its RAi is 0.0209 ± 0.0011.

What about the “Δlog(τ/KA)” value (M4 muscarinic receptor [2]; M4Gi (↓cAMP), Table 8, to carbachol) of the same molecule?
The value was 1.58 ± 0.22.

And the EC50 (M4 muscarinic receptor [2]; M4Gi (↓cAMP), Table 8)?
Its EC50 is 1.78 µM.

And the Kd (M4 muscarinic receptor [2]; M4Gi (↓cAMP), Table 8)?
The Kd was 3.16 µM.
